According to US20240002332A1, “Small Molecule Inhibitors of SARS-CoV-2 Infections” (priority 2020, published 2024):
In brackets after ≈: the same amount, converted by molar mass. Where two headings read alike, the source gives them in different places.

Assays:
[1] = Parallel artificial membrane permeability assay (PAMPA); conditions: for Papp / Permeability: PAMPA; for Permeability: Tier I ADME
Vero-E6 = experiment: Cytotoxicity counter screen (cell viability, CellTiter-Glo); format: cell-based; conditions: for IC50: Chlorocebus sabaeus, read-out: IC50 (μM) cell viability
Method: Compound cytotoxicity was assessed in a BSL-2 counter screen as follows: Cell culture media (MEM, 1% Pen/Strep/GlutaMax, 1% HEPES, 2% HI FBS) was dispensed at 5 μl/well into ARPs and incubated at room temperature to allow for compound dissolution. Vero-E6 (selected for high ACE2 expression) was dispensed into assay plates at 4000 cells/well in 25 μl media. Assay plates were incubated for 72 h at 37 C, 5% CO2, 90% humidity. Then, 30 μl/well of CellTiter-Glo (Promega #G7573) was dispensed into the assay plate. Luminescence was read using a BMG PHERAstar plate reader following incubation at room temperature for 10 min to measure cell viability.

[2] = Rat liver microsomal (RLM) stability; conditions: for half-life: rat
in vitro [3] = conditions: rat, microsomes
[4] = Kinetic solubility (Tier I ADME); conditions: kinetic from dmso stock
[5] = test system: SARS CoV-2 (USA_WA1/2020); experiment: Cytopathic effect (CPE) assay; format: cell-based; conditions: for Emax: read-out: Efficacy CPE assay
in vitro [6] = conditions: PAMPA
physchem = conditions: kinetic from dmso stock
SARS-CoV-2 [7] = conditions: EIDD-2801 250 mpk BID; Compound P3 60 mpk BID
Description: EIDD-2801 (molnupiravir) was chosen as the positive control at 250 mpk BID oral dose.

ZIKV = conditions: cited from earlier work
[8] = Pharmacokinetics in mice IV 3 and PO 10 mg/kg; plasma, lung and liver
SARS-CoV-2 [9] = experiment: SARS-CoV-2 viral titer in human bronchial epithelial cells (HBEC; EpiAirway); format: cell-based; conditions: dilutions 0.01, 0.1, 1, 10 micrograms per mL
Method: In the first part of the experiment, the test compounds were diluted in Assay medium (AIR-100-ASY). The test compound dilutions (0.01, 0.1, 1, 10 micrograms per mL) were added to each insert on the apical layer (0.15 mL) and basal layer (0.85 mL). Following the 1 h treatment, the apical medium was removed, and the basal side was replaced with fresh compound. Virus (0.15 mL) was then added to each insert on the apical layer, removed after 1 h and washed with 0.4 mL TEER buffer. The basal side medium/compound was replaced with 1 mL of Assay medium. Every twenty-four hours, the apical layer of the tissues were washed with 0.4 mL of TEER buffer and aliquoted to separate microfuge tubes. Trizol LS (1.2 mL) was added to each tube, pipetted up and down several times and stored at −80° C. The basal layer supernatant (1 mL) was collected from each well, aliquoted into separate microfuge tubes and stored at −80° C. The basal side medium was replaced with 1 mL of Maintenance Medium.
In the second part of the experiment, RNA was isolated from the trizol samples and the supernatants from all treatments were tittered by plaque assay or TCID50 to determine the amount of virus present in each sample.

[10] = uninfected Vero-E6, 72 h, CellTiter-Glo
[11] = Vero C1008, uninfected Vero-E6, 72 h, CellTiter-Glo
[12] = Severe acute respiratory syndrome coronavirus 2, Vero C1008, 72 h
[13] = Severe acute respiratory syndrome coronavirus 2, Vero C1008, % inhibition of CPE, SARS-CoV-2-infected Vero-E6, 72 h
[14] = Severe acute respiratory syndrome coronavirus 2, Vero C1008, rescue IC50, SARS-CoV-2-infected Vero-E6, 72 h
[15] = mice, Compound P3 dosed PO 10 mg/kg, Liver
[16] = mice, Compound P3 dosed PO 10 mg/kg, Plasma
[17] = mouse Plasma, Compound P3 dosed IV 3 mg/kg
[18] = mouse Plasma, Compound P3 dosed PO 10 mg/kg

O=C(Nc1ccc(C(F)(F)F)cc1)c1cc(Cl)ccc1O [Compound 39, 5-chloro-2-hydroxy-N-(4-(trifluoromethyl)phenyl)benzamide]
Papp [1]: 22.3 ×10⁻⁶ cm/s | IC50 (Vero-E6; Vero C1008, 72 h): 0.45 µM | Efficacy cell viability (Vero-E6; [10]): −94.6 | half-life ([2]; microsomes): > 30 min

O=C(Nc1ccc(C(F)(F)F)c(F)c1)c1cc(Br)ccc1O [Compound 59, 5-bromo-N-(3-fluoro-4-(trifluoromethyl)phenyl)-2-hydroxybenzamide]
IC50 (Vero-E6; [11]): 0.45 µM | Efficacy cell viability (Vero-E6; [10]): −91.7 | half-life (in vitro [3]): > 30 min

CCOP(=O)(OCC)Oc1ccc(Cl)cc1C(=O)Nc1ccc([N+](=O)[O-])cc1Cl [Compound P8, 4-chloro-2-((2-chloro-4-nitrophenyl)carbamoyl)phenyl diethyl phosphate]
Papp [1]: 982 ×10⁻⁶ cm/s | solubility [4]: < 1 µg/mL | IC50 (Vero-E6; Vero C1008, 72 h): 0.91 µM | Efficacy cell viability (Vero-E6; [10]): −90.6 | half-life ([2]; microsomes): > 30 min | IC50 [5, 12]: 0.41 µM | Emax [5, 12]: 36.8%

CCCCCCCC(=O)Oc1ccc(Cl)cc1C(=O)Nc1ccc([N+](=O)[O-])cc1Cl [Compound P2, 4-chloro-2-((2-chloro-4-nitrophenyl)carbamoyl)phenyl octanoate]
Papp (in vitro [6]): < 6.5 ×10⁻⁶ cm/s | solubility (physchem): 1.1 µg/mL (≈ 2.43 µM) | IC50 (Vero-E6; [11]): 0.57 µM | Efficacy cell viability (Vero-E6; [10]): −95.8 | Emax [5, 13]: 36.5% | IC50 [5, 14]: 0.1 µM

O=C(Oc1ccc(Cl)cc1C(=O)Nc1ccc([N+](=O)[O-])cc1Cl)c1ccc(C(F)(F)F)cc1 [Compound P1, 4-chloro-2-((2-chloro-4-nitrophenyl)carbamoyl)phenyl 4-(trifluoromethyl)benzoate]
Papp (in vitro [6]): < 2.6 ×10⁻⁶ cm/s | solubility (physchem): < 1 µg/mL | IC50 (Vero-E6; [11]): 0.57 µM | Efficacy cell viability (Vero-E6; [10]): −96.34 | Emax [5, 13]: 34% | IC50 [5, 14]: 0.11 µM

COc1cc([N+](=O)[O-])ccc1NC(=O)c1cc(Cl)ccc1O [Compound 27, 5-chloro-2-hydroxy-N-(2-methoxy-4-nitrophenyl)benzamide]
Permeability [1]: 334.4 10^−6 cm/sec | IC50 (Vero-E6; Vero C1008, 72 h): 0.64 µM | Efficacy cell viability (Vero-E6; [10]): −92.9 | half-life ([2]; microsomes): > 30 min

CC(C)COC(=O)Oc1ccc(Cl)cc1C(=O)Nc1ccc([N+](=O)[O-])cc1Cl [Compound P9, 4-chloro-2-((2-chloro-4-nitrophenyl)carbamoyl)phenyl isobutyl carbonate]
solubility (physchem): 4.48 µg/mL (≈ 10.5 µM) | IC50 (Vero-E6; [11]): 0.57 µM | Efficacy cell viability (Vero-E6; [10]): −91.0 | Emax [5, 13]: 35.2% | IC50 [5, 14]: 0.13 µM

N#Cc1ccc(NC(=O)c2cc(Cl)ccc2O)c(Cl)c1 [Compound 32, 5-chloro-N-(2-chloro-4-cyanophenyl)-2-hydroxybenzamide]
Papp [1]: 5.16 ×10⁻⁶ cm/s | IC50 (Vero-E6; [11]): 1.01 µM | Efficacy cell viability (Vero-E6; [10]): −99.6 | half-life ([2]; rat liver microsomes): > 30 min

O=C(Nc1ccc([N+](=O)[O-])cc1)c1cc(Cl)ccc1O [Compound 24, 5-chloro-2-hydroxy-N-(4-nitrophenyl)benzamide]
Permeability [1]: 127.13 10^−6 cm/sec | IC50 (Vero-E6; Vero C1008, 72 h): 0.57 µM | Efficacy cell viability (Vero-E6; [10]): −93.1 | RLM stability (T1/2 min) ([2]; rat liver microsomes): 22 min

O=C(Oc1ccc(Cl)cc1C(=O)Nc1ccc([N+](=O)[O-])cc1Cl)c1ccccc1 [Compound P7, 4-chloro-2-((2-chloro-4-nitrophenyl)carbamoyl)phenyl benzoate]
solubility (physchem): < 1 µg/mL | IC50 (Vero-E6; [11]): 0.32 µM | Efficacy cell viability (Vero-E6; [10]): −94.0 | Emax [5, 13]: 26.9% | IC50 [5, 14]: 0.13 µM

CC(C)C(=O)OC[C@H]1O[C@@H](n2ccc(NO)nc2=O)[C@H](O)[C@@H]1O [EIDD-2801, reference compound]
IHC immunoreactivity staining in the right lung (SARS-CoV-2 [7]): lowered in severity

CC(C)OC(=O)Oc1ccc(Cl)cc1C(=O)Nc1ccc([N+](=O)[O-])cc1Cl [Compound P6, 4-chloro-2-((2-chloro-4-nitrophenyl)carbamoyl)phenyl isopropyl carbonate]
Papp (in vitro [6]; pH 5): 57 ×10⁻⁶ cm/s | solubility (physchem): < 1 µg/mL | IC50 (Vero-E6; [11]): 0.45 µM | Efficacy cell viability (Vero-E6; [10]): −82.3 | Emax [5, 13]: 37.1% | IC50 [5, 14]: 0.11 µM

O=C(Nc1ccc([N+](=O)[O-])cc1Cl)c1cc(Cl)ccc1O [Niclosamide, 5-chloro-N-(2-chloro-4-nitrophenyl)-2-hydroxybenzamide, reference compound]
permeability in PAMPA ([1]; result in words): unable to be quantified in the acceptor compartment | ZIKV growth (ZIKV; early stages and 24 h post infection): inhibited ZIKV growth | ZIKV titer (ZIKV; human placental epithelial cells and iPSC-derived human neural progenitor cells): reduced ZIKV titer | AUC_% Extrap [8, 15]: 4.4% | t1/2 [8, 15]: 438 min | AUC_% Extrap ([8]; mice, Compound P3 dosed PO 10 mg/kg, Lung): 0.6% | AUC0-INF [8, 16]: 1620 ng·h/mL | AUC_% Extrap [8, 16]: 1.0% | AUC_%Extrap_obs [8, 17]: 0.3% | Clast [8, 17]: 0.329 ng/mL | Tlast [8, 17]: 30 h | AUCINF_obs [8, 18]: 1620 ng·h/mL | AUC_%Extrap_obs [8, 18]: 1.0% | Clast [8, 18]: 4.04 ng/mL | Cmax [8, 18]: 346 ng/mL | Tlast [8, 18]: 30 h | t½ [8, 18]: 162 min | AUC(0-inf) ([8]; mouse, liver, po, 10 mg/kg): 9250 ng·h/mL | AUC(0-t) ([8]; mouse, liver, po, 10 mg/kg): 8850 ng·h/mL | Cmax ([8]; mouse, liver, po, 10 mg/kg): 882 ng/mL | AUC(0-inf) ([8]; mouse, lung, po, 10 mg/kg): 3080 ng·h/mL | AUC(0-t) ([8]; mouse, lung, po, 10 mg/kg): 3060 ng·h/mL | Cmax ([8]; mouse, lung, po, 10 mg/kg): 397 ng/mL | half-life ([8]; mouse, lung, po, 10 mg/kg): 258 min | AUC(0-inf) ([8]; mouse, plasma, iv, 3 mg/kg): 587 ng·h/mL | AUC(0-t) ([8]; mouse, plasma, iv, 3 mg/kg): 585 ng·h/mL | Cmax ([8]; mouse, plasma, iv, 3 mg/kg): 168 ng/mL | Tmax ([8]; mouse, plasma, iv, 3 mg/kg): 4.98 min | half-life ([8]; mouse, plasma, iv, 3 mg/kg): 216 min | AUC(0-t) ([8]; mouse, plasma, po, 10 mg/kg): 1600 ng·h/mL | half-life ([8]; mouse, plasma, po, 10 mg/kg): 162 min | RLM stability (T1/2 min) ([2]; rat liver microsomes): >30 min | half-life ([2]; rat liver microsomes): > 30 min

COCC(=O)Oc1ccc(Cl)cc1C(=O)Nc1ccc([N+](=O)[O-])cc1Cl [Compound P5, 4-chloro-2-((2-chloro-4-nitrophenyl)carbamoyl)phenyl 2-methoxyacetate]
solubility (physchem): < 1 µg/mL | IC50 (Vero-E6; [11]): 0.51 µM | Efficacy cell viability (Vero-E6; [10]): −91.2 | Emax [5, 13]: 37% | IC50 [5, 14]: 0.11 µM

O=C(Nc1ccc([N+](=O)[O-])cc1Cl)c1cc(Cl)ccc1OC1CCNCC1 [Compound 4, 5-chloro-N-(2-chloro-4-nitrophenyl)-2-(piperidin-4-yloxy)benzamide]
Papp [1]: 516 ×10⁻⁶ cm/s | solubility [4]: 8.4 µg/mL (≈ 20.5 µM) | IC50 (Vero-E6; [11]): 4.05 µM | half-life ([2]; rat liver microsomes): > 30 min | Emax [5, 13]: -8.3% | IC50 [5, 14]: 5.1 µM

O=C(Nc1ccc([N+](=O)[O-])cc1Cl)c1cc(Br)ccc1O [Compound 6, 5-bromo-N-(2-chloro-4-nitrophenyl)-2-hydroxybenzamide]
Permeability [1]: 67 10^−6 cm/sec | IC50 (Vero-E6; Vero C1008, 72 h): 0.4 µM | Efficacy cell viability (Vero-E6; [10]): −94.8 | inhibition of SARS-CoV-2 (viral titer) (SARS-CoV-2 [9]): effectively inhibited SARS-CoV-2 in human bronchial epithelial cells at sub-nanomolar and nanomolar concentrations | half-life ([2]; microsomes): > 30 min

CC(=O)Oc1ccc(Cl)cc1C(=O)Nc1ccc([N+](=O)[O-])cc1Cl [Compound P4, 4-chloro-2-((2-chloro-4-nitrophenyl)carbamoyl)phenyl acetate]
Papp (in vitro [6]): 632 ×10⁻⁶ cm/s | solubility (physchem): < 1 µg/mL | IC50 (Vero-E6; [11]): 0.57 µM | Efficacy cell viability (Vero-E6; [10]): −93.0 | Emax [5, 13]: 36.2% | IC50 [5, 14]: 0.25 µM
